Laboratory results taken from patent US8344178B2, “Processes for producing and recovering shikimic acid” (priority 2007, dated 2013).

Key:
Alfalfa = assay: Shikimate accumulation in alfalfa over time after glyphosate treatment (Example 1, FIG. 5); format: in vivo; conditions: ROUNDUP WEATHERMAX at 100, 200, 400 and 800 g a.e./ha; 1, 2, 3 and 4 days after treatment
Experimental: (§1) Alfalfa was established in a greenhouse in 4 inch pots and treated with glyphosate at an early vegetative stage. Approximately 8 plants per pot were treated at the V4 growth stage. Plants were treated with ROUNDUP WEATHERMAX in a track sprayer, at 0, 100, 200, 400 and 800 g a.e./ha and returned to the greenhouse. All treatments were replicated 5 times. Leaves were harvested at five time points: immediately after spray (t0), and at 1, 2, 3 and 4 days after treatment. After harvest, leaves were frozen on dry ice, weighed, and then stored at −80 C until extraction and analysis.
(§2) For t0 harvest, leaves were harvested immediately after treatment. For the 1, 2, 3 and 4 day harvest, plants were washed thoroughly with water from a spray hose and then allowed to dry before harvest. This procedure allowed for the measurement of the concentration of shikimic acid as well as an estimate of the concentration of glyphosate treatment (t0) and the amount of glyphosate absorbed and retained in treated leaves (1, 2, 3 and 4 days after treatment).
(§3) Leaf tissue was ground frozen on dry ice to a frozen powder. […]
(§4) Extract analysis was performed using both HPLC/MS and HPLC/uv (210 nm) detection. […] Shikimic acid was also analyzed on a separate Agilent 1100 HPLC system equipped with a 4.6 mm×250 mm, 5 micron ODS2 Waters Spherisorb® column (P/N PSS831915) using a photodiode array detector.

Soybean = assay: Shikimate accumulation in soybean after glyphosate treatment (Example 2, FIG. 6); format: in vivo; conditions: ROUNDUP WEATHERMAX at 100, 200, 400 and 800 g a.e./ha; 1, 2, 3 and 4 days after treatment
Experimental: as §1, with “Soybean plants were established” for “Alfalfa was established”, “Approximately 1 plant” for “Approximately 8 plants”, “pot was” for “pot were”, “the V2” for “the V4”
as §2, §3, §4

[1] = tested on: E. coli K-12 host strain LBB427, untransformed or transformed with plasmid pXT1457; assay: Treatment of E. coli strains with glyphosate in Vogel-Bonner minimal culture medium (Example 7); format: cell-based, Escherichia coli
Experimental: To confirm that the new plasmid was functioning as expected, the wild-type E. coli K-12 host strain LBB427 was transformed with the plasmid pXT1457. Techniques for transforming bacteria, including strains of E. coli, are known in the art (Sambrook and Russell, 2001; Ausubel et al., 2005). The shikimic acid and phenylalanine production levels of this strain were compared to that of the untransformed host strain LBB427. The strains were cultured in 50 milliliters of Vogel-Bonner minimal culture medium (Vogel and Bonner, 1956), consisting of magnesium sulfate heptahydrate (MgSO4-7H2O) at 298 milligrams per liter, anhydrous dibasic potassium phosphate (K2HPO4) at 14.93 grams per liter, sodium ammonium phosphate tetrahydrate (NaNH4HPO4-4H2O) at 5.22 grams per liter, anhydrous citric acid (the free acid form) at 2.73 grams per liter, and glucose at 2.00 grams per liter. The pH of the culture medium was 7.0. For the strain LBB427 transformed with the plasmid pXT1457, ampicillin was included in the culture medium at 100 milligrams per liter. The cultures were grown in flasks, on an incubator shaker operating at 300 rpm and 37 degrees Celsius. At 24 hours after inoculation, the cells were pelleted by centrifugation, and the culture supernatants were analyzed by a high-pressure liquid chromatography (HPLC) assay for shikimic acid and phenylalanine content. To the samples to be assayed, phosphoric acid was added to a final concentration of 6 millimolar. The samples were injected onto a 0.5 centimeter by […] Altec 5 micron Bondapak C-18 column, and the eluate was scanned from 190 to 300 nanometers.
The untransformed host strain LBB427 and the host strain LBB427 transformed with the plasmid pXT1457 were grown in 50 milliliters of the Vogel-Bonner minimal culture medium described in Example 5. For the strain LBB427 transformed with the plasmid pXT1457, ampicillin was included in the culture medium at 100 milligrams per liter. The cultures were grown in flasks, on an incubator shaker operating at 300 rpm and 37 degrees Celsius. At 2.5 hours after inoculation, N-(phosphonomethyl)glycine was added to a concentration of 3.38 grams per liter (20 millimolar). […] At 24 hours after inoculation (i.e., 21.5 hours after N-(phosphonomethyl)glycine addition), the cells were pelleted by centrifugation, and the culture supernatants were analyzed for shikimic acid content using the HPLC assay described in Example 5. The culture supernatants of the host strain LBB427 transformed with the plasmid pXT1457 were also analyzed for phenylalanine content.

[2] = tested on: E. coli host strain LBB427, untransformed or transformed with plasmid pXT1457 or pXT1483; assay: Growth of E. coli strains under phosphate-limiting conditions combined with glyphosate treatment (Example 9); format: cell-based, Escherichia coli; conditions: for Shikimic acid in the culture supernatant: phosphate-limitation, 20 millimolar, 21.5 hours after addition
Source text: A phosphate-limiting culture medium was developed by the Applicants, containing anhydrous magnesium sulfate (MgSO4) at 192 milligrams per liter, ammonium chloride (NH4Cl) at 5.35 grams per liter, potassium chloride (KCl) at 3.73 grams per liter, sodium chloride (NaCl) at 1.17 grams per liter, triethanolamine (a buffering compound) at 22.3 grams per liter, and glucose at 1.5 grams per liter. The pH of the culture medium was 7.0. […] This culture medium was designated PF culture medium (standing for phosphate-free culture medium). However, a phosphate-limiting medium may be formulated for use in the present invention such that, while not phosphate-free, it contains minimal amounts of phosphate (i.e., is substantially free of phosphate). […] Generally, such a phosphate-limiting medium should contain phosphate at levels no more than about 1 millimolar, and preferably at levels no more than about 100 micromolar.
For pre-growth of the strains, sources of phosphate were supplied to this culture medium in the form of Casamino acids at 2.2 grams per liter and yeast extract at 300 milligrams per liter. This culture medium was designated PF-CAA/YE culture medium (standing for PF culture medium plus Casamino acids and yeast extract).
The untransformed host strain LBB427 and the host strain LBB427 transformed with the plasmid pXT1457 or with the plasmid pXT1483 were grown initially in 50 milliliters of the PF-CAA/YE culture medium described in Example 8. For the strains of LBB427 transformed with the plasmid pXT1457 or with the plasmid pXT1483, ampicillin was included in the culture medium at 100 milligrams per liter. The cultures were grown for 2.5 hours in flasks, on an incubator shaker operating at 300 rpm and 37 degrees Celsius. The cells in these cultures were pelleted by centrifugation and resuspended in the same volume of the PF culture medium described in Example 8. For the strains of LBB427 transformed with the plasmid pXT1457 or with the plasmid pXT1483, ampicillin was included in the culture medium at 100 milligrams per liter. To these resuspended cultures, N-(phosphonomethyl)glycine was added to a concentration of 3.38 grams per liter (20 millimolar). […] At 24 hours after inoculation (i.e., 21.5 hours after N-(phosphonomethyl)glycine addition), the cells were pelleted by centrifugation, and the culture supernatants were analyzed for shikimic acid content using the HPLC assay described in Example 5.
It is possible that not all of the accumulated shikimate-3-phosphate in these cells had been converted into shikimic acid and excreted into the culture medium. […] The cells were pelleted by centrifugation, and the culture supernatant was analyzed for shikimic acid content using the HPLC assay described in Example 5.

[3] = tested on: E. coli host strain LBB427 transformed with plasmid pXT1483; assay: Shikimic acid from a phosphate-limited high-density fermentation culture with glyphosate (Example 10); format: cell-based, Escherichia coli; conditions: optical density of 40; 20 millimolar; twelve hours after addition; sample at pH 1.0, 60 degrees Celsius for 15 minutes
Experimental: The host strain LBB427 transformed with the plasmid pXT1483 can be grown to high optical densities in a phosphate-limited fermentation culture. Fermentations are conducted in a chemically-defined minimal medium containing 5.9 grams of anhydrous ammonium sulfate ((NH4)2SO4), 1.8 grams of anhydrous dibasic potassium phosphate (K2HPO4), 1.0 grams of monobasic sodium phosphate monohydrate (NaH2PO4—H2O), 550 milligrams of magnesium sulfate heptahydrate (MgSO4-7H2O), 27 milligrams of ferric chloride hexahydrate (FeCl3-6H2O), 0.5 milligrams of zinc sulfate heptahydrate (ZnSO4-7H2O), 0.9 milligrams of cobalt chloride hexahydrate (CoCl2-6H2O), 0.9 milligrams of sodium molybdate dihydrate (Na2MoO4-2H2O), 1.1 milligrams of cupric sulfate pentahydrate (CuSO4-5H2O), 0.3 milligrams of boric acid (H3BO3), and 0.7 milligrams of manganese sulfate monohydrate (MnSO4—H2O) per liter of water. The fermenter is maintained at 37 degrees Celsius. The pH is maintained at 7.0 by the controlled addition of concentrated (about 29%) ammonium hydroxide (NH4OH). […]
Twelve hours after N-(phosphonomethyl)glycine addition, samples of the fermentation cultures are taken for analysis of shikimic acid levels. […] The cells are pelleted by centrifugation, and the culture supernatants are analyzed for shikimic acid content using the HPLC assay described in Example 5.

[4] = LBB427 transformed with pXT1457, 20 millimolar, 21.5 hours after addition

SMILES: O=C(O)CNCP(=O)(O)O [glyphosate, N-(phosphonomethyl)glycine]
- Shikimic acid accumulation in alfalfa leaves over time (Alfalfa): accumulates to significantly high levels
- Shikimic acid accumulation in soybean leaves (Soybean): accumulates to significantly high levels
- Growth of the cultures ([1]; 3.38 grams per liter (20 millimolar), added 2.5 hours after inoculation, LBB427 and LBB427 with pXT1457): almost completely inhibited
- Phenylalanine in the culture supernatant [1, 4]: about 50 milligrams of phenylalanine per OD unit per liter
- Shikimic acid in the culture supernatant [1, 4]: did not produce detectable levels
- Shikimic acid in the culture supernatant ([1]; untransformed host strain LBB427, 20 millimolar, 21.5 hours after addition): did not produce detectable levels
- Shikimic acid in the culture supernatant ([2]; LBB427 transformed with pXT1457): about 250 milligrams of shikimic acid per OD unit per liter
- Shikimic acid in the culture supernatant ([2]; LBB427 transformed with pXT1483): about 400 milligrams of shikimic acid per OD unit per liter
- Level of shikimic acid in the culture supernatant after acid and heat treatment of the culture sample ([2]; LBB427 transformed with pXT1483, sample with cells adjusted to pH 1.0, 60 degrees Celsius for 15 minutes): about 600 milligrams per OD unit per liter
- Shikimic acid in the culture supernatant ([2]; untransformed host strain LBB427): about 200 milligrams of shikimic acid per OD unit per liter
- Shikimic acid in the culture supernatant [3]: about 24 grams of shikimic acid per liter
